The values below come from patent publication US9586949B2, “Aza-heteroaryl compounds as PI3K-gamma inhibitors” (Incyte Corporation, priority 2015, dated 2017).

In assay [1] the target is PI3Kδ (p110δ/p85α) Recombinant Human Protein (Homo sapiens (Human), UniProt O00329). Nature of the assay: PI3Kδ Scintillation Proximity Assay. The assay is classed as biochemical. As to conditions: 20 μM PIP2, 2 μM ATP, 3.4 nM PI3Kδ, 120 min; read-out: PI3K-delta SPA IC50. (In general: In a scintillation proximity assay essentially only radioactivity close to the scintillant gives light.)
PI3Kδ (p110δ/p85α) Recombinant Human Protein, sequence (O00329 whole entry): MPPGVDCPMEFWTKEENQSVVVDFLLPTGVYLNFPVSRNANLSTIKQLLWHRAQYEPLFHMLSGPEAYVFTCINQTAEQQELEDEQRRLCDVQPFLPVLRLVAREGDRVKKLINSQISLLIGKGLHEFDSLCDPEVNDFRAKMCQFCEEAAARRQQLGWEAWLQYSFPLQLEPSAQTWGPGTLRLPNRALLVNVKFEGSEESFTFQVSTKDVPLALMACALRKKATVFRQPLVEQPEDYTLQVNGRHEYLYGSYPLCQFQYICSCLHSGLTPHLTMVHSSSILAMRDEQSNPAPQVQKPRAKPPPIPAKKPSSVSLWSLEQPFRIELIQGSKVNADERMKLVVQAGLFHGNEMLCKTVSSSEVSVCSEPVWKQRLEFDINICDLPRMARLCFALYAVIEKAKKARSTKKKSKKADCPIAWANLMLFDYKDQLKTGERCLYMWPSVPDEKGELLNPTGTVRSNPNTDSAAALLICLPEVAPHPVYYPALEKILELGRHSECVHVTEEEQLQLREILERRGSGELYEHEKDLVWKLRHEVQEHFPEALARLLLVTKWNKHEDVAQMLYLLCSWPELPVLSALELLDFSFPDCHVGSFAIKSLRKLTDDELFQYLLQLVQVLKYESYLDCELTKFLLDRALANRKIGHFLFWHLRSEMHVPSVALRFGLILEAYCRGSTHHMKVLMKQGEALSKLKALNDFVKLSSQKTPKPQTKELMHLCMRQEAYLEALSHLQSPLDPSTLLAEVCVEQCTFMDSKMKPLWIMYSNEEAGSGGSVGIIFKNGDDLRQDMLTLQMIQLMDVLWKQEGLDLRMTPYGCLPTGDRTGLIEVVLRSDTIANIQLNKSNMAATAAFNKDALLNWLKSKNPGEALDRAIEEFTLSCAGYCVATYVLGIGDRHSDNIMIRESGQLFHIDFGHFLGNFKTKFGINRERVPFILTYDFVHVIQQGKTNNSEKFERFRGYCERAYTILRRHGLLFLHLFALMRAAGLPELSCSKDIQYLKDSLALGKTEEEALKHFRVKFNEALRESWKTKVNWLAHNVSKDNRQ
PI3Kδ (p110δ/p85α) Recombinant Human Protein, sequence (P27986 whole entry partner): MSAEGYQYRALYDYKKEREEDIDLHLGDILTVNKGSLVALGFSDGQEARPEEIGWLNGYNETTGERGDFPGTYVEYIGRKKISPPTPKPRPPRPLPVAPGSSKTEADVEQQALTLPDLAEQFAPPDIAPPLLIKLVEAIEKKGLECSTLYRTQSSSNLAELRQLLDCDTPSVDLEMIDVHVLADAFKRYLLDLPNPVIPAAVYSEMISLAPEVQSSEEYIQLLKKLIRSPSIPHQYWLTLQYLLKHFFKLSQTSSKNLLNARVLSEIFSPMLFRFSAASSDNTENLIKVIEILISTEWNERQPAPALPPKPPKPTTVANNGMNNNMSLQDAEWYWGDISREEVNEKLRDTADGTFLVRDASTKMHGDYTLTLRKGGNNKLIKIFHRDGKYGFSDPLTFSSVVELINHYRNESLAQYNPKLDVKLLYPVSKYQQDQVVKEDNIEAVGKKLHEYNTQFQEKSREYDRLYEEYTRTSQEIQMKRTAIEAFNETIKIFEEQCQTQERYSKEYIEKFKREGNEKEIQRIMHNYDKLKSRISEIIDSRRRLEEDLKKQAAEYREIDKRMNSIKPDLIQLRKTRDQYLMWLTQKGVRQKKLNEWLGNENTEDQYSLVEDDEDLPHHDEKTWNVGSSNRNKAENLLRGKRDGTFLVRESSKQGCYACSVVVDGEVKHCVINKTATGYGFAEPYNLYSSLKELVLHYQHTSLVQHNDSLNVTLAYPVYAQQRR

Assay [2] concerns the target PI3Kγ (p110γ) Recombinant Human Protein (Homo sapiens (Human), UniProt P48736). The experiment in a line: PI3K-γ Scintillation Proximity Assay. The assay is classed as biochemical. As to conditions: 20 μM PIP2, 2 μM ATP, 13 nM PI3Kγ, 120 min; read-out: PI3K-gamma SPA IC50. Put shortly: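 Radiometric SPA readout: […] bound to WGA beads after overnight shaking, IC50 derived from % activity of DMSO control. Reaction used human p110γ, 2 μM ATP, 20 μM PIP2, pH 6.7 MOPS buffer with MgCl2, DTT, CHAPS, 2% DMSO, room temperature.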

Assay [3] has as its system Phosphorylated Ribosomal Protein S6 (RPS6). Nature of the assay: THP-1 RPS6 ELISA Assay. The following applies: THP-1 cells, serum starved, 2 hours with compound, 10 nM MCP-1 for 15 minutes; read-out: THP p-RPS6 ELISA IC50. The assay is classed as cell-based, Human. The method, then:
To measure the Phosphorylated Ribosomal Protein S6 (RPS6) in cell lysates, THP-1 cells (Human Acute Monocytic Leukemia) are purchased from ATCC (Manassas, Va.) and maintained in RPMI with 10% FBS (Gibco/Life Technologies, Carlsbad, Calif.). For the assay, THP-1 cells are serum starved overnight in RPMI, then plated in RPMI (2×10^5 cells/well in 90 μL) into 96-well flat-bottom tissue culture treated plates (Corning, Corning, N.Y.), in the presence or absence of a concentration range of test compounds. Covered plates are incubated for 2 hours at 37° C., 5% CO2 then treated with or without 10 nM MCP-1 (MYBioSource, San Diego, Calif.) for 15 minutes at 37° C., 5% CO2. Plates are centrifuged at 1600 RPM and supernatants are removed. Cells are lysed in Lysis Buffer (Cell Signaling, Danvers, Mass.) with Protease Inhibitor (Calbiochem/EMD, Germany), PMSF (Sigma, St Louis Mo.), HALTS (Thermo Fisher, Rockford, Ill.) for 30 min on wet ice. Cell lysates are frozen at −80° C. before testing. The lysates are tested in the Human/Mouse/Rat Phospho-RPS6 ELISA (R&D Systems, Inc. Minn, Minn.). The plate is measured using a microplate reader (SpectraMax M5-Molecular Devices, LLC Sunnyvale, Calif.) set to 450 nm with a wavelength correction of 540. […]
In general terms: ELISA stands for enzyme-linked immunosorbent assay.

A value given as a limit tells only on which side of the number the result lay.

PI3Kγ (p110γ) Recombinant Human Protein, sequence (P48736 whole entry): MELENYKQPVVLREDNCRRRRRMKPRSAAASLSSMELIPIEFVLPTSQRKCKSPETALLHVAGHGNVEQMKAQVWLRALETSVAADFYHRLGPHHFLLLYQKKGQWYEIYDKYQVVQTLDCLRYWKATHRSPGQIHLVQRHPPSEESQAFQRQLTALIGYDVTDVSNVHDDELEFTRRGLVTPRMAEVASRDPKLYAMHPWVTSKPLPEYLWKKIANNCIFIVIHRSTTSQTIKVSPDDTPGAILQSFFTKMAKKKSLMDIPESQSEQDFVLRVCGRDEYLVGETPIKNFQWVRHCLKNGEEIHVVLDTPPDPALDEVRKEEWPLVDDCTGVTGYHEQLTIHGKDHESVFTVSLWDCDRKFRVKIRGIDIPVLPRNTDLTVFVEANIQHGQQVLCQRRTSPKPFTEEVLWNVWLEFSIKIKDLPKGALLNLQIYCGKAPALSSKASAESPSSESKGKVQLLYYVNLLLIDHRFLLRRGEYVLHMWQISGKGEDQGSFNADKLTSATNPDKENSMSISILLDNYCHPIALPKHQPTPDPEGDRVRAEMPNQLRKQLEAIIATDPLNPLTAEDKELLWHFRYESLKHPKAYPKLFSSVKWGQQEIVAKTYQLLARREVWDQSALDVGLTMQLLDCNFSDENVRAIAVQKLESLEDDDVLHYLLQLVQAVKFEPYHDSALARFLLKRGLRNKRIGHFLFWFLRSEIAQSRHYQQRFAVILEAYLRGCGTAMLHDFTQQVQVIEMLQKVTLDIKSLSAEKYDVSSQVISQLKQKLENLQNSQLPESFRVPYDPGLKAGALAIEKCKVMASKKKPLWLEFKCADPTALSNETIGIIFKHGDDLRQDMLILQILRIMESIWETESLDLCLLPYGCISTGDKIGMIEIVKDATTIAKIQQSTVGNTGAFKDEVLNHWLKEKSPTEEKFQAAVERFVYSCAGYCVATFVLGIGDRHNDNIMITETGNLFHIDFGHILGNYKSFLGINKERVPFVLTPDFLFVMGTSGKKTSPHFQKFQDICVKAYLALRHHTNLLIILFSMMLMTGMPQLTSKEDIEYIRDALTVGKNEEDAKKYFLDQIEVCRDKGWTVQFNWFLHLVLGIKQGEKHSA

`O=S(=O)(CC(F)(F)F)Nc1cc(-c2ccc3nc(-c4nc5ccccc5[nH]4)oc3c2)cnc1F` [Example 75, N-(5-(2-(1H-Benzo [d]imidazol-2-yl)benzo[d]oxazol-6-yl)-2-fluoropyridin-3-yl)-2,2,2-trifluoro-ethanesulfonamide bis(trifluoroacetate)]: the IC50 in assay [1] and in assay [2] was below 250 nM throughout.

`Cc1ncc(-c2ccc3nc(-c4nc5ccccc5[nH]4)oc3c2)cc1NS(=O)(=O)CC(F)(F)F` [Example 76, N-(5-(2-(1H-Benzo [d]imidazol-2-yl)benzo[d]oxazol-6-yl)-2-methylpyridin-3-yl)-2,2,2-trifluoro-ethanesulfonamide bis(trifluoroacetate)]: the IC50 in assay [1] and in assay [2] was below 250 nM throughout.

For `O=S(=O)(CC(F)(F)F)Nc1cncc(-c2ccc3nc(-c4nc5ccccc5[nH]4)oc3c2)c1` [Example 77, N-(5-(2-(1H-Benzo [d]imidazol-2-yl)benzo[d]oxazol-6-yl)pyridin-3-yl)-2,2,2-trifluoro-ethanesulfonamide bis(trifluoroacetate)], the IC50 in assay [1] is below 1000 nM; in assay [2] it was below 250 nM.

In the case of `CCS(=O)(=O)Nc1cc(-c2ccc3nc(-c4nc5ccccc5[nH]4)oc3c2)ncc1F` [Example 78, N-(2-(2-(1H-Benzo [d]imidazol-2-yl)benzo[d]oxazol-6-yl)-5-fluoropyridin-4-yl) ethanesulfonamide bis(trifluoroacetate)], the IC50 in assay [1] and in assay [2] was below 5000 nM throughout.

Turning to `CCS(=O)(=O)Nc1cc(-c2ccc3nc(-c4nc5ccccc5[nH]4)oc3c2)cnc1OC` [Example 79, N-(5-(2-(1H-Benzo [d]imidazol-2-yl)benzo[d]oxazol-6-yl)-2-methoxypyridin-3-yl)ethanesulfonamide bis(trifluoroacetate)], the IC50 in assay [1] and in assay [2] was below 250 nM throughout.

Turning to `CCS(=O)(=O)Nc1cc(-c2ccc3nc(-c4nc5ccccc5[nH]4)oc3c2)cc(F)c1OC` [Example 80, N-(5-(2-(1H-Benzo [d]imidazol-2-yl)benzo[d]oxazol-6-yl)-3-fluoro-2-methoxyphenyl) ethanesulfonamide bis(trifluoroacetate)], the IC50 is below 5000 nM in assay [1] and below 250 nM in assay [2].

“N-(5-(2-(1H- Benzo[d]imidazol-2- yl)benzo[d]oxazol- 6-yl)pyridin-3- yl)ethanesulfonamide [Example 18]”: the IC50 in assay [3] was at least 5000 nM; in assay [1] it was below 1000 nM.
